# From patent US9526766B2, “Potentiation of antibiotic treatment with a protein-lipid complex” (priority 2012, dated 2016)
# What was measured:
# NRS 123 Staphylococci = experiment: Membrane potential, DiBAC4(3) fluorescence; assay type: cell-based, Staphylococcus aureus; conditions: Ruthenium Red, Amiloride
# Procedure: Assessing membrane potential. Staphylococci grown to late log phase in TSB were pelleted by centrifugation at 2,400×g for 10 minutes and washed twice by resuspension in PBS. The bacterial pellet was resuspended in PBS to half of the original volume and energized with 50 mM glucose for 15 minutes at 37° C. To measure membrane potential of the staphylococcal membrane, 500 nM DiBAC4(3) (bis-(1,3-dibutylbarbituric acid) trimethine oxonol; Molecular Probes, Eugene, Oreg., USA) were added. […] The plate was then placed immediately into a pre-warmed (37° C.) Synergy 2 Multi-Mode Microplate Reader (BioTek) where fluorescence readings from DiBAC4(3) (485/20 nm excitation, 528/20 nm emission) were taken every minute for one hour. The difference in fluorescence intensity between the untreated control and the ALAFAC-treated sample was calculated for the “no inhibitor” samples and for the “inhibitor” samples using the values after 60 minutes. The fluorescence intensity difference for the “inhibitor” samples was then expressed as fold change of the intensity compared with the ALAFAC alone (“no inhibitor”) sample, providing the degree of depolarization compared to the “ALAFAC alone” sample.
# Streptococcus pneumoniae = experiment: Short-time kill assay on planktonic cultures; assay type: cell-based; conditions: D39, 1 hour, staurosporine 20 μM; for Effect of inhibitor on ALAFAC potentiation of gentamicin and penicillin G: Ruthenium Red 30 μM
# Procedure: Methodology: In late logarithmic growth phase, the bacteria were harvested by centrifugation at 12,000×g for 10 minutes and resuspended in phosphate-buffered saline (PBS; […], […], […], pH 7.4). Appropriate dilutions of the bacteria were suspended in PBS and treated with indicated concentrations of ALAFAC and/or antibiotics for various times. The effect on bacterial viability was assessed by plating serial dilutions of bacterial sample on tryptic soy agar plates containing 5% sheep blood (viable counts) and determining viable colony forming units after overnight growth at 37° C.
# Short-time kill assays. In late logarithmic growth phase, the bacteria were harvested by centrifugation at 12,000×g for 10 minutes and resuspended in phosphate-buffered saline (PBS; 30 mM Na2HPO4, 10 mM KH2PO4, […], pH 7.4). Appropriate concentrations of the bacteria (around 10^8 colony forming units per ml) were suspended in PBS and treated with indicated concentrations of ALAFAC and/or antibiotics for various times. The effect on bacterial viability was assessed by plating serial dilutions of bacterial sample on tryptic soy agar plates containing 5% sheep blood (viable counts) and determining viable CFUs after overnight growth at 37° C.
# NRS 384 Staphylococci [1] = experiment: Radioisotope 45Ca2+ transport assay; assay type: cell-based, Staphylococcus aureus; conditions: ALAFAC addition, Ruthenium Red 30 μM
# Procedure: Radioisotope ^45Ca^2+ transport assays. Staphylococcus aureus was grown to log phase, washed three times and resuspended in 1×PBS containing 0.5 mM CaCl2 (CaPBS). No glucose was added in order to minimize the interference created by extrusion of Ca^2+ via ATPase pumps. ^45CaCl2 (PerkinElmer; Waltham, Mass., USA) was added to the cells at a final concentration of 2.5 μCi/mL, followed by inhibitor compound, with each addition given two minutes equilibration time. The untreated baseline sample was measured at this point. The sample was then divided, ALAFAC was added to one of the tubes, and ^45Ca^2+ uptake was measured at various intervals. For each sample, 100 μL was dispensed onto Millipore 0.3 μm PHWP filters (EMD Millipore; Billerica, Mass., USA) presoaked in CaPBS, and immediately washed with 9 mL of CaPBS via syringe filtration through Millipore Swinnex® filter holders. Filters were placed in scintillation vials with 5 mL of scintillation fluid, and CPMs were detected on a Wallac 1409 liquid scintillation counter (Wallac Oy, Turku, Finland). The results were expressed as ΔCPM that was calculated for each sample at the indicated time points as the difference between ALAFAC-treated and untreated samples.
# Staphylococcus aureus = experiment: MIC by broth microdilution, antibiotics with and without ALAFAC; assay type: cell-based; conditions: NRS 123; methicillin + ALAFAC; Ruthenium Red 30 μM, Amiloride 1 mM
# Procedure: Methodology: Minimal inhibitory concentrations (MICs) were determined in 96-well microtiter plates using the microdilution method according to approved standards of the CLSI except that Todd-Hewitt medium supplemented with 0.5% yeast extract, which yields reproducible MIC results was used as the test medium for S. pneumoniae. For the remaining species Mueller-Hinton medium was used as indicated by the CLSI standard. Each well contained two-fold dilutions of antibiotic, was seeded with a final bacterial concentration of 10^5 CFU/mL, and was incubated for 18 h at 37° C. in a Synergy II microplate reader (Biotek, Winooski, Vt.) where the OD600 was recorded every 5 minutes to monitor bacterial growth. The MIC was defined as the lowest concentration of antimicrobial agent solution at which no increase in OD600 was detected.
# In vitro susceptibility tests. Minimal inhibitory concentrations (MICs) were determined in 96-well microtiter plates using the microdilution method according to approved standards of the CLSI as described previously. However, rather than Mueller-Hinton broth, Tryptic soy broth (TSB) was used for susceptibility testing as it is the common media used for Staphylococcal growth, and as it has shown more consistent results for a variety of antimicrobials when tested against Staphylococci. […] A two-fold dilution series of antibiotics in triplicate and in the presence or absence of ALAFAC was prepared in 96 well microtiter plates, and each well was seeded with a final bacterial concentration of 10^5 CFU/mL, and was incubated for 24 h at 37° C. in a Synergy 2 microplate reader (Biotek, Winooski, Vt.) where the Optical Density at 600 nm (OD600) was recorded every 5 minutes to monitor bacterial growth. The MIC was defined as the lowest concentration of antimicrobial agent solution where no increase in OD600 was detected.
# NRS 384 Staphylococci [2] = experiment: Intracellular pH measurement (BCECF-AM); assay type: cell-based, Staphylococcus aureus; conditions: ALAFAC 100 μg/mL (6 μM), RuR 30 μM, Amiloride 1 mM
# Source text: Intracellular pH measurement. A reported protocol for intracellular pH (pHi) measurement was modified and optimized for S. aureus by testing the effect of various dye concentrations and staining times on the measured fluorescence of S. aureus isolate NRS 384 grown to mid-log phase. Cell samples were subjected to increasing concentrations of the membrane-permeant acetoxymehtyl (AM) ester derivative of the dual-excitation ratiometric pH indicator dye BCECF (2′,7′-bis-(2-carboxyethyl)-5-(and-6)-carboxyfluorescein), for 30 minutes at 30° C. Fluorescence was measured as a ratio of fluorescence at 530 nm with dual wavelength excitation at 490 and 440 nm and calibration curves were established for each independent experiment. After testing a number of loading concentrations we observed that the fluorescence ratios remains generally constant when concentrations above 20 μM was used. Therefore 25 μM BCECF-AM was used for all experiments. The optimized staining time, 30 minutes, was determined using the same criteria and was used for all experiments. After loading, the cells were washed twice in PBS by centrifugation and the resulting pellet was resuspended in PBS to the original volume and ALAFAC and ALAFAC/antibiotic combinations were added. CCCP was added as a positive control. CCCP is a lipophilic weak acid that is soluble in the lipid domain of the membrane in both the protonated and deprotonated form. This allows it to act as a protonophore causing an influx of H^+ into the cytoplasm, dissipating both the electrical potential and the H^+ gradient across the inner membrane. For each experiment calibration was performed where cells were resuspended in high [K^+] buffers at different pH values ranging from 6.5 to 8.0.
structure (smiles),measurement,setting,value
N.N.N.N.N.N.N.N.N.N.N.N.N.N.[Cl-].[Cl-].[Cl-].[Cl-].[Cl-].[Cl-].[O-2].[O-2].[Ru+3].[Ru+3].[Ru+4] [Ruthenium Red],Effect of inhibitor on ALAFAC-associated membrane depolarization,NRS 123 Staphylococci,completely abolished
same,Effect of inhibitor on ALAFAC potentiation of gentamicin and penicillin G,Streptococcus pneumoniae,completely abolished
same,Effect of inhibitor on ALAFAC potentiation of gentamicin and penicillin G,Streptococcus pneumoniae; listed as ruthenium red,significantly blocked
same,Effect of inhibitor on ALAFAC-induced death,"Streptococcus pneumoniae; lethal ALAFAC (12×MIC), ruthenium red 30 μM",significantly reduced
same,Intracellular Ca2+ (45Ca2+ uptake),NRS 384 Staphylococci [1],almost completely blocked
same,Effect of inhibitor on ALAFAC antibiotic potentiation in MIC assay,Staphylococcus aureus,completely abolished
same,Transmembrane proton gradient (intracellular pH),NRS 384 Staphylococci [2],did not fully inhibit
